Assay: xn = mol fraction of the nth substance listed
Conditions: 101 kPa, Liquid, Vibrating tube method

CNCCCN [N-methyl-1,3-diaminopropane] + CN(CCO)CCO
mass density [kg/m3]
Conditions | x1 = 0.1001 | x1 = 0.2003 | x1 = 0.2999 | x1 = 0.3997 | x1 = 0.5 | x1 = 0.5999 | x1 = 0.7001 | x1 = 0.8002 | x1 = 0.9 | x1 = 1
293.15 K | 1026.93 | 1012.7 | 997.588 | 981.393 | 964.134 | 944.646 | 923.928 | 900.759 | 876.717 | 851.605
303.15 K | 1019.31 | 1005.01 | 989.787 | 973.417 | 956.077 | 936.426 | 915.36 | 892.077 | 868.035 | 842.69
313.15 K | 1011.66 | 997.273 | 981.94 | 965.391 | 947.946 | 928.152 | 907.016 | 883.714 | 859.287 | 833.715
323.15 K | 1003.95 | 989.479 | 974.031 | 957.394 | 939.738 | 919.85 | 898.494 | 874.972 | 850.467 | 824.673
333.15 K | 996.181 | 981.607 | 966.033 | 949.272 | 931.432 | 911.414 | 889.941 | 866.238 | 841.566 | 815.559
343.15 K | 988.342 | 973.656 | 957.953 | 941.042 | 923.056 | 902.895 | 881.277 | 857.422 | 832.576 | 806.37
353.15 K | 980.415 | 965.631 | 949.783 | 932.732 | 914.593 | 894.29 | 872.517 | 848.523 | 823.509 | 797.093
363.15 K | 972.409 | 957.499 | 941.523 | 924.324 | 906.038 | 885.584 | 863.668 | 839.559 | 814.342 | 787.723

CNCCCN [N-methyl-1,3-diaminopropane] + O
mass density [kg/m3]
Conditions | 283.15 K | 293.15 K | 303.15 K | 313.15 K | 323.15 K | 333.15 K | 343.15 K | 353.15 K | 363.15 K
x1 = 0.0051 | 998.237 | 996.63 | 993.985 | 990.476 | 986.217 | 981.304 | 975.769 | 969.7 | 963.045
x1 = 0.02 | 994.774 | 992.593 | 989.479 | 985.566 | 980.949 | 975.762 | 969.886 | 963.52 | 956.663
x1 = 0.04 | 992.84 | 989.571 | 985.557 | 980.873 | 975.589 | 969.758 | 963.394 | 956.509 | 949.281
x1 = 0.0599 | 991.664 | 987.189 | 982.161 | 976.614 | 970.587 | 964.115 | 957.198 | 949.885 | 942.172
x1 = 0.08 | 991.853 | 986.2 | 980.175 | 973.774 | 967.022 | 959.923 | 952.467 | 944.681 | 936.552
x1 = 0.1001 | 990.982 | 984.3 | 977.4 | 970.258 | 962.871 | 955.236 | 947.339 | 939.185 | 930.768
x1 = 0.1496 | 985.446 | 977.467 | 969.396 | 961.197 | 952.86 | 944.358 | 935.674 | 926.784 | 917.665
x1 = 0.2001 | 975.602 | 967.23 | 958.776 | 950.269 | 941.571 | 932.714 | 923.678 | 914.46 | 905.046
x1 = 0.2996 | 953.237 | 944.826 | 936.29 | 927.601 | 918.738 | 909.696 | 900.476 | 891.074 | 881.47
x1 = 0.4001 | 932.582 | 924.145 | 915.578 | 906.849 | 897.972 | 888.926 | 879.715 | 870.324 | 860.741
x1 = 0.4995 | 915.228 | 906.757 | 898.165 | 889.428 | 880.556 | 871.523 | 862.344 | 852.997 | 843.475
x1 = 0.5998 | 900.588 | 892.069 | 883.427 | 874.666 | 865.773 | 856.742 | 847.577 | 838.26 | 828.782
x1 = 0.6995 | 888.711 | 880.119 | 871.429 | 862.629 | 853.712 | 844.674 | 835.508 | 826.212 | 816.767
x1 = 0.7976 | 879.041 | 870.383 | 861.635 | 852.787 | 843.839 | 834.781 | 825.611 | 816.324 | 806.909
x1 = 0.901 | 869.652 | 860.902 | 852.078 | 843.17 | 834.181 | 825.1 | 815.925 | 806.659 | 797.262
x1 = 1 | 860.459 | 851.605 | 842.69 | 833.715 | 824.673 | 815.559 | 806.37 | 797.093 | 787.723
